Assays:
[1] = system: mouse neural stem cells (NSCs); assay: Promoting activity in oligodendrocyte differentiation of mouse neural stem cell (GalC immunostaining); type: cell-based; conditions: for Gal/C positive ratio Average value: day 10, N=5
Description: To NSC basal medium (100 mL) included in this product, B27 (1 mL), Penicillin-Streptomycin (1 mL), Glutamine (1 mL), bFGF (20 μL), EGF (10 μL), and Heparin (100 μL) were added to prepare the growth medium. Mouse neural stem cells were reconstituted in a T-25 flask using the growth medium and proliferated as a neurosphere by suspension culture. The cells were expanded by passaging at a split ratio=1:2 in a CO2 incubator (5% CO2, 37° C., wet) to obtain the required number of cells. ACCUTASE (Innovative Cell Technologies, Cat. No. AT104) was used as the passage reagent.
The differentiation medium containing test substance was prepared to a target final concentration by diluting a solution of 20 mM compound in DMSO to 10-fold with DMSO and then to 2×10^5-fold with the differentiation medium. Additive-free differentiation medium for control was prepared by diluting DMSO to 2×10^5-fold with the differentiation medium to be a final concentration of 5×10^−5%.
The mouse neural stem cells were seeded on a poly-L-Lysine/Laminin-coated 96-well plate at a cell density of 2.0×10^4 cells/100 μL/well using the differentiation medium and the culture was started in a CO2 incubator (5% CO2, 37° C., wet). The next day, the medium was replaced with the differentiation medium containing a test substance or an additive-free differentiation medium for control, and evaluation of the test substance (N=5) was started (day 0). The medium was replaced every other day by 60% of the medium in the wells. On day 10, cells were fixed and immunostained.
After the medium was removed, the cells were fixed by adding 100 μL of 4% paraformaldehyde-PBS and being incubated at room temperature for 30 minutes. Next, the cells were washed 3 times with PBS, 100 μL of 5% Goat Serum/PBS was added thereto, and the mixture was incubated at room temperature for 30 minutes to perform blocking and membrane permeation treatment. […] After the cells were washed 3 times with PBS, 100 μL of PBS was added to the wells, and the wells were photographed with fluorescence microscopy. Images were taken under the same condition in all wells, and blue fluorescence and green fluorescence were simultaneously photographed.
Using the hybrid cell counting software provided in the fluorescence microscope (Keyence, BZ-X700), co-localized spots of green fluorescence and blue fluorescence were extracted, and the number of these spots was defined as the total number of GalC-positive cells, and the oligodendrocyte differentiation ratio was calculated by the following calculation:the total number of GalC-positive cells/the number of nuclei (number of blue fluorescence spots). A significant difference test was performed by t-test between the additive-free group and the sample-added group.

human VDR = target: T1, human VDR (Homo sapiens, UniProt P11473); assay: Evaluation of VDR transcription activity in human osteoblasts (HOS cells), luciferase reporter; conditions: Activity (EC50, VDR transcription activity), HOS cells transfected with human VDR, human RXRα and DR3 luciferase reporter; 21 hours
T1 sequence (P11473 1-427): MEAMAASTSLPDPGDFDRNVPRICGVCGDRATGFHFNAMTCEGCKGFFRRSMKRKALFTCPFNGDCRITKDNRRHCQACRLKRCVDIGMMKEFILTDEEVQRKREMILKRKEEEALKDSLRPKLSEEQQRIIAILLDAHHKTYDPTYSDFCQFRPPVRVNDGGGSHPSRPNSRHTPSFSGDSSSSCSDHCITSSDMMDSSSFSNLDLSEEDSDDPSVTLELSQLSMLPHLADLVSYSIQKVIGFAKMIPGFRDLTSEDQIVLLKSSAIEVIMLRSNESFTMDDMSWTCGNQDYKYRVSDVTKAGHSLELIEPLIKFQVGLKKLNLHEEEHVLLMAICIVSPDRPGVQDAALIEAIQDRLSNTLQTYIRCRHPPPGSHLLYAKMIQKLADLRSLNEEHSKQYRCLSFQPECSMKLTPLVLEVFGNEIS
T1 sequence (P19793 1-462 partner): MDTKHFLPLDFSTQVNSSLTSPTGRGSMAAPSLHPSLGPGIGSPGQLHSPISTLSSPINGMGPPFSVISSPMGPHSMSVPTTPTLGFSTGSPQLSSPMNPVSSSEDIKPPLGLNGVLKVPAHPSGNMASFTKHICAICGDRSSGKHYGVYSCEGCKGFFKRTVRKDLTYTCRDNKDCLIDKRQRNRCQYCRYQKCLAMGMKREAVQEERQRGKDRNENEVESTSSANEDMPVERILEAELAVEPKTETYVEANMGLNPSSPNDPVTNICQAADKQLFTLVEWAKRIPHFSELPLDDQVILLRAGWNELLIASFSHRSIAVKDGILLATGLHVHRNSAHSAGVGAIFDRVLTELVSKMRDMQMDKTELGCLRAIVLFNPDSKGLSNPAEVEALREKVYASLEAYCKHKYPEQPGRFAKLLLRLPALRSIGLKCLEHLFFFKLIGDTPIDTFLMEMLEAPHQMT

[2] = system: rat oligodendrocyte progenitor cells; assay: Promotive activity of rat oligodendrocyte progenitor cell differentiation-1 (MBP gene expression, mRNA); type: cell-based; conditions: 4 days, MBP/β actin mRNA; for activation at 1 µM: Rattus norvegicus, Oligodendrocyte progenitor cell, 96 h, read-out: promotive activity at T3 base (MBP gene expression; DMSO 0%, T3 100%)
Outline: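 Primary OPCs from 1-day-old SD rat forebrain, isolated by shaking off mixed glial cultures and seeded at 2×10^3 cells/well in B27/CNTF (10 ng/mL) differentiation medium with compound. MBP mRNA measured by one-step TaqMan real-time PCR and expressed as MBP/β-actin ratio.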

[3] = system: rat oligodendrocyte progenitor cells; assay: Promotive activity of rat oligodendrocyte progenitor cell differentiation-2 (immunostaining of MBP); type: cell-based; conditions: vitamin D derivative 2 μM, T3 30 nM, 4 days
Outline: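 Vitamin D derivatives scored as symbols for promoting differentiation, read out by MBP immunostaining. OPCs taken from supernatant after about 22 h shaking (37 °C, 200 rpm) in separation medium.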

[4] = Evaluation of brain penetration in mice (blood and brain concentration at brain Cmax); type: in vivo, mouse; conditions: 1 mg/kg single oral dose, C57BL/6J mice; for Concentration in blood (mean ± SD) at brain Cmax / Concentration in brain (mean ± SD) at brain Cmax: n=3; for Kp: male, C57BL/6J, mouse, brain/plasma, po, 1 mg/kg, read-out: Concentration in brain/in blood ratio at brain Cmax
Outline: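 Male C57BL/6J mice (8 weeks, n=3) dosed orally once at 1 […] mg/kg; plasma and brain collected at 0.25, 0.5, 1, 2, 4 and 8 h. Compound extracted with acetonitrile from brain homogenate and plasma, quantified by LC/MS/MS.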

C=C1/C(=C\C=C2/CCC[C@]3(C)[C@@H]([C@H](C)CCN4CCOC[C@@H]4C)CC[C@@H]23)C[C@@H](O)CC1O (stereo in doubt) [Compound D045, (1R,3R,Z)-5-(2-((1R,3aS,7aR,E)-7a-methyl-1-((R)-4-((S)-3-methylmorpholino)butan-2-yl)octahydro-4H-inden-4-ylidene)ethylidene)-4-methylenecyclohexane-1,3-diol]
Gal/C positive ratio Average value ([1]; 10 nM): 11.46
Gal/C positive ratio Average value ([1]; 100 nM): 12.01
Gal/C positive ratio Average value ([1]; 1000 nM): 14.93
EC50 (human VDR): 10 to 100 nM

C=C1/C(=C\C=C2/CCC[C@]3(C)[C@@H]([C@H](C)CCCC(C)(C)O)CC[C@@H]23)C[C@@H](O)C[C@@H]1O [1α,25-dihydroxyvitamin D3, reference compound]
promotive activity at T3 base (MBP gene expression; DMSO 0%, T3 100%) ([2]; 1 μM): 0%
promoting activity in a Gal/C-positive oligodendrocyte differentiation ([1]; 1000 nM): 1.5 times

C[C@H](CN1CC[C@@H](C(F)F)C1)[C@H]1CC[C@H]2/C(=C/C=C3C[C@@H](O)C[C@H](O)C3)CCC[C@]12C [Compound B026, (1R,3R)-5-(2-((1R,3aS,7aR,E)-1-((S)-1-((R)-3-(difluoromethyl)pyrrolidin-1-yl)propan-2-yl)-7a-methyloctahydro-4H-inden-4-ylidene)ethylidene)cyclohexane-1,3-diol]
activation at 1 µM [2]: ≥ 20%
Mean (number of MBP-positive cells/number of Hoechst33342-positive cells) ([3]; Test 1): 0.38
Concentration in blood (mean ± SD) at brain Cmax [4]: 218 ± 31 nM
Concentration in brain (mean ± SD) at brain Cmax [4]: 384 ± 40 pmol/g
Kp [4]: 1.76
EC50 (human VDR): 10 to 100 nM

C=C1[C@H](O)CC(=C/C=C2\CCC[C@]3(C)[C@@H]([C@H](C)CN4CC[C@@H](C(F)F)C4)CC[C@@H]23)C[C@H]1O [Compound B027, (1R,3R)-5-(2-((1R,3aS,7aR,E)-1-((S)-1-((R)-3-(difluoromethyl)pyrrolidin-1-yl)propan-2-yl)-7a-methyloctahydro-4H-inden-4-ylidene)ethylidene)-2-methylenecyclohexane-1,3-diol]
activation at 1 µM [2]: ≥ 20%
Mean (number of MBP-positive cells/number of Hoechst33342-positive cells) ([3]; Test 1): 0.29
Concentration in blood (mean ± SD) at brain Cmax [4]: 126 ± 14 nM
Concentration in brain (mean ± SD) at brain Cmax [4]: 414 ± 40 pmol/g
Kp [4]: 3.29
EC50 (human VDR): 1 to 10 nM

C=C1[C@H](O)CC(=C/C=C2\CCC[C@]3(C)[C@@H]([C@H](C)CN4CC[C@H](CC(F)F)C4)CC[C@@H]23)C[C@H]1O [Compound B040, (1R,3R)-5-(2-((1R,3aS,7aR,E)-1-((S)-1-((R)-3-(2,2-difluoroethyl)pyrrolidin-1-yl)propan-2-yl)-7a-methyloctahydro-4H-inden-4-ylidene)ethylidene)-2-methylenecyclohexane-1,3-diol]
activation at 1 µM [2]: ≥ 20%
Mean (number of MBP-positive cells/number of Hoechst33342-positive cells) ([3]; Test 1): 0.59
Concentration in blood (mean ± SD) at brain Cmax [4]: 70 ± 10 nM
Concentration in brain (mean ± SD) at brain Cmax [4]: 153 ± 35 pmol/g
Kp [4]: 2.18
EC50 (human VDR): 1 to 10 nM

C[C@H](CN1CC[C@H](OC(F)F)C1)[C@H]1CC[C@H]2/C(=C/C=C3C[C@@H](O)C[C@H](O)C3)CCC[C@]12C [Compound B051, (1R,3R)-5-(2-((1R,3aS,7aR,E)-1-((S)-1-((S)-3-(difluoromethoxy)pyrrolidin-1-yl)propan-2-yl)-7a-methyloctahydro-4H-inden-4-ylidene)ethylidene)cyclohexane-1,3-diol]
activation at 1 µM [2]: ≥ 20%
Mean (number of MBP-positive cells/number of Hoechst33342-positive cells) ([3]; Test 2): 0.45
Concentration in blood (mean ± SD) at brain Cmax [4]: 304 ± 35 nM
Concentration in brain (mean ± SD) at brain Cmax [4]: 644 ± 92 pmol/g
Kp [4]: 2.12
EC50 (human VDR): 10 to 100 nM

C=C1[C@H](O)CC(=C/C=C2\CCC[C@]3(C)[C@@H]([C@H](C)CN4CC[C@H](OCC(F)F)C4)CC[C@@H]23)C[C@H]1O [Compound B055, (1R,3R)-5-(2-((1R,3aS,7aR,E)-1-((S)-1-((S)-3-(2,2-difluoroethoxy)pyrrolidin-1-yl)propan-2-yl)-7a-methyloctahydro-4H-inden-4-ylidene)ethylidene)-2-methylenecyclohexane-1,3-diol]
activation at 1 µM [2]: ≥ 20%
Mean (number of MBP-positive cells/number of Hoechst33342-positive cells) ([3]; Test 2): 0.56
Concentration in blood (mean ± SD) at brain Cmax [4]: 309 ± 17 nM
Concentration in brain (mean ± SD) at brain Cmax [4]: 327 ± 28 pmol/g
Kp [4]: 1.06
EC50 (human VDR): 1 to 10 nM

C[C@H](CN1CCOCC1)[C@H]1CC[C@H]2/C(=C/C=C3C[C@@H](O)C[C@H](O)C3)CCC[C@]12C [Compound D004, (1R,3R)-5-(2-((1R,3aS,7aR,E)-7a-methyl-1-((S)-1-morpholinopropan-2-yl)-octahydro-4H-inden-4-ylidene)ethylidene)cyclohexane-1,3-diol]
Gal/C positive ratio Average value ([1]; 10 nM): 12.61
Gal/C positive ratio Average value ([1]; 100 nM): 15.55
Gal/C positive ratio Average value ([1]; 1000 nM): 16.76

C[C@H](CCN1CCOC[C@H]1C)[C@H]1CC[C@H]2/C(=C/C=C3C[C@@H](O)C[C@H](O)C3)CCC[C@]12C [Compound D042, (1R,3R)-5-(2-((1R,3aS,7aR,E)-7a-methyl-1-((R)-4-((R)-3-methylmorpholino)butan-2-yl)octahydro-4H-inden-4-ylidene)ethylidene)cyclohexane-1,3-diol]
Gal/C positive ratio Average value ([1]; 10 nM): 12.25
Gal/C positive ratio Average value ([1]; 100 nM): 14.27
Gal/C positive ratio Average value ([1]; 1000 nM): 15.80
EC50 (human VDR): 10 to 100 nM

C[C@H](CCN1CCOC[C@@H]1C)[C@H]1CC[C@H]2/C(=C/C=C3C[C@@H](O)C[C@H](O)C3)CCC[C@]12C [Compound D043, (1R,3R)-5-(2-((1R,3aS,7aR,E)-7a-methyl-1-((R)-4-((S)-3-methylmorpholino)butan-2-yl)octahydro-4H-inden-4-ylidene)ethylidene)cyclohexane-1,3-diol]
activation at 1 µM [2]: ≥ 20%
Gal/C positive ratio Average value ([1]; 10 nM): 12.81
Gal/C positive ratio Average value ([1]; 100 nM): 12.27
Gal/C positive ratio Average value ([1]; 1000 nM): 16.09
